Source: PubChem BioAssay AID2060483 (Molecular Pharmacology Branch, DTP, NCI, 2025)

Test system: K24384-001-R-PDC complex spheroids, viability
Experiment: Anticancer human tumor K24384-001-R-PDC patient-derived pancreatic adenocarcinoma cell line growth inhibition [GQUAD]
Details: for IC50: curve of first compound; for viability, T/C: stronger effect = lower value; active = viability on the fitted dose curve at most 10% of control; inactive = the rest
Outline: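 Tumor cells were grown as complex spheroids with HUVEC endothelial cells and mesenchymal stem cells as stroma. G-quadruplex stabilizers were combined with targeted agents over half-log dilutions from near the clinical Cmax, or from 10 microM.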

[1] = second compound 0.0316 µM, first compound 0.0316 µM
[2] = second compound 0.0316 µM, first compound 0.1 µM
[3] = second compound 0.0316 µM, first compound 0.316 µM
[4] = second compound 0.0316 µM, first compound 1 µM
[5] = second compound 0.0316 µM, first compound 3.16 µM
[6] = second compound 0.0316 µM, first compound 10 µM
[7] = second compound 0.1 µM, first compound 0.0316 µM
[8] = second compound 0.1 µM, first compound 0.1 µM
[9] = second compound 0.1 µM, first compound 0.316 µM
[10] = second compound 0.1 µM, first compound 1 µM
[11] = second compound 0.1 µM, first compound 3.16 µM
[12] = second compound 0.1 µM, first compound 10 µM
[13] = second compound 0.316 µM, first compound 0.0316 µM
[14] = second compound 0.316 µM, first compound 0.1 µM
[15] = second compound 0.316 µM, first compound 0.316 µM
[16] = second compound 0.316 µM, first compound 1 µM
[17] = second compound 0.316 µM, first compound 3.16 µM
[18] = second compound 0.316 µM, first compound 10 µM
[19] = second compound 1 µM, first compound 0.0316 µM
[20] = second compound 1 µM, first compound 0.1 µM
[21] = second compound 1 µM, first compound 0.316 µM
[22] = second compound 1 µM, first compound 1 µM
[23] = second compound 1 µM, first compound 3.16 µM
[24] = second compound 1 µM, first compound 10 µM
[25] = second compound 3.16 µM, first compound 0.0316 µM
[26] = second compound 3.16 µM, first compound 0.1 µM
[27] = second compound 3.16 µM, first compound 0.316 µM
[28] = second compound 3.16 µM, first compound 1 µM
[29] = second compound 3.16 µM, first compound 3.16 µM
[30] = second compound 3.16 µM, first compound 10 µM
[31] = second compound 10 µM, first compound 0.0316 µM
[32] = second compound 10 µM, first compound 0.1 µM
[33] = second compound 10 µM, first compound 0.316 µM
[34] = second compound 10 µM, first compound 1 µM
[35] = second compound 10 µM, first compound 3.16 µM
[36] = second compound 10 µM, first compound 10 µM
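Also: spheroids exposed to compounds for seven days.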

COc1cccc2c1C(=O)c1c(O)c3c(c(O)c1C2=O)CC(O)(C(=O)CO)CC3OC1CC(N)C(O)C(C)O1 (stereo unspecified) + CN(C)c1ccc(Nc2c3ccc(NC(=O)CCN4CCCC4)cc3nc3cc(NC(=O)CCN4CCCC4)ccc23)cc1
148 nM: IC50 (second compound 1 µM)
inactive: viability, T/C [1] 94.6% | viability, T/C [2] 57.3% | viability, T/C [3] 54.4% | viability, T/C [4] 18.4% | viability, T/C [7] 92.5% | viability, T/C [8] 63.3% | viability, T/C [9] 38.2% | viability, T/C [10] 19.1% | viability, T/C [13] 79.4% | viability, T/C [14] 51.2% | viability, T/C [15] 35.3% | viability, T/C [16] 20.8% | viability, T/C [19] 90.7% | viability, T/C [20] 53.8% | viability, T/C [21] 39.3% | viability, T/C [22] 20.4% | viability, T/C [25] 83.2% | viability, T/C [26] 56.4% | viability, T/C [27] 39.2% | viability, T/C [28] 29.3% | viability, T/C [29] 5.72% | viability, T/C [31] 80.9% | viability, T/C [32] 101% | viability, T/C [33] 38% | viability, T/C [34] 35% | viability, T/C [35] 9.76% | viability, T/C [36] 2.73%
244 nM: IC50 (second compound 10 µM)
120 nM: IC50 (second compound 0.316 µM)
215 nM: IC50 (second compound 0.0316 µM)
169 nM: IC50 (second compound 3.16 µM)
183 nM: IC50 (second compound 0.1 µM)
active: viability, T/C [5] 4.88% | viability, T/C [6] 3.9% | viability, T/C [11] 5.65% | viability, T/C [12] 3.5% | viability, T/C [17] 6.33% | viability, T/C [18] 4.16% | viability, T/C [23] 5.66% | viability, T/C [24] 4.15% | viability, T/C [30] 5.1%

Nc1ccn(C2OC(CO)C(O)C2(F)F)c(=O)n1 (stereo unspecified) + CN(C)c1ccc(Nc2c3ccc(NC(=O)CCN4CCCC4)cc3nc3cc(NC(=O)CCN4CCCC4)ccc23)cc1
118 nM: IC50 (second compound 10 µM)
inactive: viability, T/C [1] 73.4% | viability, T/C [2] 66.5% | viability, T/C [3] 40.9% | viability, T/C [4] 35.9% | viability, T/C [5] 23.1% | viability, T/C [6] 21.4% | viability, T/C [7] 78.1% | viability, T/C [8] 57.2% | viability, T/C [9] 38.2% | viability, T/C [10] 30.8% | viability, T/C [11] 19.8% | viability, T/C [12] 19.8% | viability, T/C [13] 68.1% | viability, T/C [14] 56.6% | viability, T/C [15] 38.7% | viability, T/C [16] 30.3% | viability, T/C [17] 20.6% | viability, T/C [18] 17.2% | viability, T/C [19] 71.9% | viability, T/C [20] 49.9% | viability, T/C [21] 39.2% | viability, T/C [22] 24.4% | viability, T/C [23] 19.9% | viability, T/C [24] 16.8% | viability, T/C [25] 76.5% | viability, T/C [26] 57.6% | viability, T/C [27] 33.7% | viability, T/C [28] 23.3% | viability, T/C [29] 18.6% | viability, T/C [30] 15.6% | viability, T/C [31] 63.6% | viability, T/C [32] 54.1% | viability, T/C [33] 32.8% | viability, T/C [34] 27.9% | viability, T/C [35] 18.3% | viability, T/C [36] 18.2%
144 nM: IC50 (second compound 3.16 µM)
152 nM: IC50 (second compound 0.316 µM)
238 nM: IC50 (second compound 0.0316 µM)
111 nM: IC50 (second compound 1 µM)
157 nM: IC50 (second compound 0.1 µM)

O=c1[nH]cc(F)c(=O)[nH]1 + CN(C)c1ccc(Nc2c3ccc(NC(=O)CCN4CCCC4)cc3nc3cc(NC(=O)CCN4CCCC4)ccc23)cc1
1650 nM: IC50 (second compound 0.316 µM)
1750 nM: IC50 (second compound 10 µM)
2200 nM: IC50 (second compound 0.0316 µM)
1360 nM: IC50 (second compound 3.16 µM)
1260 nM: IC50 (second compound 1 µM)
inactive: viability, T/C [1] 111% | viability, T/C [2] 71.7% | viability, T/C [3] 88.4% | viability, T/C [4] 52.4% | viability, T/C [5] 42.5% | viability, T/C [6] 40.3% | viability, T/C [7] 98.7% | viability, T/C [8] 100% | viability, T/C [9] 66.5% | viability, T/C [10] 59.2% | viability, T/C [11] 42.7% | viability, T/C [12] 33.3% | viability, T/C [13] 94.8% | viability, T/C [14] 94.8% | viability, T/C [15] 72.6% | viability, T/C [16] 59.1% | viability, T/C [17] 40.4% | viability, T/C [18] 32.5% | viability, T/C [19] 90.2% | viability, T/C [20] 88.8% | viability, T/C [21] 72.4% | viability, T/C [22] 57.5% | viability, T/C [23] 31.3% | viability, T/C [24] 32.1% | viability, T/C [25] 83.9% | viability, T/C [26] 89.5% | viability, T/C [27] 65.9% | viability, T/C [28] 57.3% | viability, T/C [29] 37.6% | viability, T/C [30] 31.5% | viability, T/C [31] 83.4% | viability, T/C [32] 85.2% | viability, T/C [33] 62.2% | viability, T/C [34] 69% | viability, T/C [35] 34.1% | viability, T/C [36] 31.7%
1570 nM: IC50 (second compound 0.1 µM)
